# Measurements: ChEMBL document CHEMBL5260810, “Inhibition of bromodomain-containing protein 9 for the prevention of epigenetically-defined drug resistance” (Bioorg Med Chem Lett, 2017)
# Target: T1, ATPase family AAA domain-containing protein 2B (Homo sapiens, UniProt Q9ULI0)
# T1 sequence (Q9ULI0 whole entry): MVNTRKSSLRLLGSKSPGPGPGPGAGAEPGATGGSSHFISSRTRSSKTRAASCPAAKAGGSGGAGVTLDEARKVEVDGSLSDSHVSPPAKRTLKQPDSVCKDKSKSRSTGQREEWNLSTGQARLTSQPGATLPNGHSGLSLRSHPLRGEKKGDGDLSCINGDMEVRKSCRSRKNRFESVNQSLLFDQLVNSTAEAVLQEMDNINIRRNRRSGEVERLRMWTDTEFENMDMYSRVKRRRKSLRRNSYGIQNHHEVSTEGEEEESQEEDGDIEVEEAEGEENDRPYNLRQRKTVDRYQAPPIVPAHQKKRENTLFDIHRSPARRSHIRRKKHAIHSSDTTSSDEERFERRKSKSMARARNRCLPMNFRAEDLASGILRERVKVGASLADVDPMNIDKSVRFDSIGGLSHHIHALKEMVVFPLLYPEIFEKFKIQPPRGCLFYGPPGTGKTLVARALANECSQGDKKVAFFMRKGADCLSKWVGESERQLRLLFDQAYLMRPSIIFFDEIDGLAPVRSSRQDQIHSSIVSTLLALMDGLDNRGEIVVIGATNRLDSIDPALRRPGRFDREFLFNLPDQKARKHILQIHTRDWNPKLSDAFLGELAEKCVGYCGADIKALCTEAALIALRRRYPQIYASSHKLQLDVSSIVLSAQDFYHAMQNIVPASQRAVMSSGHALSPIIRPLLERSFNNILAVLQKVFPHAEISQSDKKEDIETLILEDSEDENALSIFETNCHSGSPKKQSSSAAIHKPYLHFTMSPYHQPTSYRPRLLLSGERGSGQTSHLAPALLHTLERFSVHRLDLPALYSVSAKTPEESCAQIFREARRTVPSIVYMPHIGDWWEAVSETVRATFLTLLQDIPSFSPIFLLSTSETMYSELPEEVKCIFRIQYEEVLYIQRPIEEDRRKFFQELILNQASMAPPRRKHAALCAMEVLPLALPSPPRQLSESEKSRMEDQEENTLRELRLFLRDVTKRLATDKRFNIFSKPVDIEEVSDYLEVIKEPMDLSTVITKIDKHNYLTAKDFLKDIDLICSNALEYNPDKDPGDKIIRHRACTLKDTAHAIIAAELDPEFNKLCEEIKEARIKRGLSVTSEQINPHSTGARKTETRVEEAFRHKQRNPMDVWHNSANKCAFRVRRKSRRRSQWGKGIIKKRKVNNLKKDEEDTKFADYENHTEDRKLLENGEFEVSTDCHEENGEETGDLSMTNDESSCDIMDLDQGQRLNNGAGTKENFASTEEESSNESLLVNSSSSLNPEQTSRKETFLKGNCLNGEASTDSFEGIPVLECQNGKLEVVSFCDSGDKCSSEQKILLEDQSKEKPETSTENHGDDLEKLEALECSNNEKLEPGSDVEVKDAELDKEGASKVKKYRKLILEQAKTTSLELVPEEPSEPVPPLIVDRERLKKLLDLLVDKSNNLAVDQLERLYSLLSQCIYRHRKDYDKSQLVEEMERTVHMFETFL
# Experiment: Binding affinity to human partial length ATAD2B (Q955 to R1082 residues) expressed in bacterial expression system by BROMOscan assay
# Settings: not given
row,SMILES,Kd [µM]
1,C/C=C/Cn1cc(-c2cc(OC)c(C(=O)N3CCOCC3)cc2OC)c2cc(C)[nH]c2c1=O,> 10
2,C/C=C/Cn1cc(-c2ccc(C(C)(C)O)cc2OC)c2cc[nH]c2c1=O,> 10
3,C/C=C/Cn1cc(-c2cc(OC)c(C(C)(C)O)cc2OC)c2cc(C)[nH]c2c1=O,> 10
4,C/C=C/Cn1cc(-c2ccc(C(=O)N3CCOCC3)cc2)c2cc[nH]c2c1=O,> 10

# Tested on: NCI-H1993
# Experiment: Cytotoxicity against human NCI-H1993 cells measured after 8 days
# Type: functional, cell-based
# Settings: NCI-H1993, 192 h
row,SMILES,IC50 [µM]
1,C/C=C/Cn1cc(-c2cc(OC)c(C(=O)N3CCOCC3)cc2OC)c2cc(C)[nH]c2c1=O,2
2,C/C=C/Cn1cc(-c2ccc(C(C)(C)O)cc2OC)c2cc[nH]c2c1=O,20
3,C/C=C/Cn1cc(-c2ccc(C(=O)N3CCOCC3)cc2)c2cc[nH]c2c1=O,20

# Species on record: Homo sapiens
# Experiment: Inhibition of JAK1alpha1 (unknown origin) at 1 uM relative to control
# Settings: not given
row,SMILES,inhibition [%]
1,C/C=C/Cn1cc(-c2cc(OC)c(C(=O)N3CCOCC3)cc2OC)c2cc(C)[nH]c2c1=O,-9.5
2,C/C=C/Cn1cc(-c2ccc(C(C)(C)O)cc2OC)c2cc[nH]c2c1=O,-4
3,C/C=C/Cn1cc(-c2ccc(C(=O)N3CCOCC3)cc2)c2cc[nH]c2c1=O,25.3

# Tested on: not listed separately
# Experiment: Cytotoxicity against human HCC461 cells measured after 8 days
# Type: functional, cell-based
# Settings: HCC461, 192 h
row,SMILES,IC50 [µM]
1,C/C=C/Cn1cc(-c2cc(OC)c(C(=O)N3CCOCC3)cc2OC)c2cc(C)[nH]c2c1=O,2
2,C/C=C/Cn1cc(-c2ccc(C(C)(C)O)cc2OC)c2cc[nH]c2c1=O,20
3,C/C=C/Cn1cc(-c2ccc(C(=O)N3CCOCC3)cc2)c2cc[nH]c2c1=O,20

# Tested on: HDQ-P1
# Experiment: Cytotoxicity against human HDQ-P1 cells measured after 8 days
# Type: functional, cell-based
# Settings: HDQ-P1, 192 h
row,SMILES,IC50 [µM]
1,C/C=C/Cn1cc(-c2cc(OC)c(C(=O)N3CCOCC3)cc2OC)c2cc(C)[nH]c2c1=O,2
2,C/C=C/Cn1cc(-c2ccc(C(C)(C)O)cc2OC)c2cc[nH]c2c1=O,20
3,C/C=C/Cn1cc(-c2ccc(C(=O)N3CCOCC3)cc2)c2cc[nH]c2c1=O,20

# Target: T2, Serine/threonine-protein kinase Chk1 (Homo sapiens) (UniProt O14757)
# T2 sequence (whole entry): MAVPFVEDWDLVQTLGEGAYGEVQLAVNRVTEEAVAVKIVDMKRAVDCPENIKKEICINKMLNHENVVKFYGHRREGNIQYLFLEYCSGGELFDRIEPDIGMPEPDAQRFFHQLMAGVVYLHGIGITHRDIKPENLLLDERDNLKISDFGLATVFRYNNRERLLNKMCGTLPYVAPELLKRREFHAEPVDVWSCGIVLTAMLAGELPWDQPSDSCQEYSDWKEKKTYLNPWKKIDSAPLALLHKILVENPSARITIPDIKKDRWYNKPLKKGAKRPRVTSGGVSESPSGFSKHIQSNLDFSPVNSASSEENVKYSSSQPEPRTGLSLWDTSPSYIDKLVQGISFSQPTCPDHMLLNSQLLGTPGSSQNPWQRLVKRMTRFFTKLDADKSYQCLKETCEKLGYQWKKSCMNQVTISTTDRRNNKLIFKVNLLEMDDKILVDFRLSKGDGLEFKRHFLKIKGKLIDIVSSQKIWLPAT
# Experiment: Inhibition of CHK1 (unknown origin) at 1 uM relative to control
# Settings: not given
row,SMILES,inhibition [%]
1,C/C=C/Cn1cc(-c2cc(OC)c(C(=O)N3CCOCC3)cc2OC)c2cc(C)[nH]c2c1=O,-7.5
2,C/C=C/Cn1cc(-c2ccc(C(C)(C)O)cc2OC)c2cc[nH]c2c1=O,7
3,C/C=C/Cn1cc(-c2ccc(C(=O)N3CCOCC3)cc2)c2cc[nH]c2c1=O,3.4

# Tested on: HCC44
# Experiment: Cytotoxicity against human HCC44 cells measured after 8 days
# Type: functional, cell-based
# Settings: HCC44, 192 h
row,SMILES,IC50 [µM]
1,C/C=C/Cn1cc(-c2cc(OC)c(C(=O)N3CCOCC3)cc2OC)c2cc(C)[nH]c2c1=O,2
2,C/C=C/Cn1cc(-c2ccc(C(C)(C)O)cc2OC)c2cc[nH]c2c1=O,20
3,C/C=C/Cn1cc(-c2ccc(C(=O)N3CCOCC3)cc2)c2cc[nH]c2c1=O,20

# Tested on: HOP-92
# Experiment: Cytotoxicity against human HOP-92 cells measured after 8 days
# Type: functional, cell-based
# Settings: HOP-92, 192 h
row,SMILES,IC50 [µM]
1,C/C=C/Cn1cc(-c2cc(OC)c(C(=O)N3CCOCC3)cc2OC)c2cc(C)[nH]c2c1=O,2
2,C/C=C/Cn1cc(-c2ccc(C(C)(C)O)cc2OC)c2cc[nH]c2c1=O,20
3,C/C=C/Cn1cc(-c2ccc(C(=O)N3CCOCC3)cc2)c2cc[nH]c2c1=O,20

# Tested on: PC-3
# Experiment: Cytotoxicity against human PC-3 cells measured after 8 days
# Type: functional, cell-based
# Settings: PC-3, 192 h
row,SMILES,IC50 [µM]
1,C/C=C/Cn1cc(-c2cc(OC)c(C(=O)N3CCOCC3)cc2OC)c2cc(C)[nH]c2c1=O,2
2,C/C=C/Cn1cc(-c2ccc(C(C)(C)O)cc2OC)c2cc[nH]c2c1=O,20
3,C/C=C/Cn1cc(-c2ccc(C(=O)N3CCOCC3)cc2)c2cc[nH]c2c1=O,20

# Tested on: not listed separately
# Experiment: Cytotoxicity against human HNT-34 cells measured after 8 days
# Type: functional, cell-based
# Settings: HNT-34, 192 h
row,SMILES,IC50 [µM]
1,C/C=C/Cn1cc(-c2cc(OC)c(C(=O)N3CCOCC3)cc2OC)c2cc(C)[nH]c2c1=O,0.54
2,C/C=C/Cn1cc(-c2ccc(C(C)(C)O)cc2OC)c2cc[nH]c2c1=O,8.14
3,C/C=C/Cn1cc(-c2ccc(C(=O)N3CCOCC3)cc2)c2cc[nH]c2c1=O,8.35

# Tested on: HCC1419
# Experiment: Cytotoxicity against human HCC1419 cells measured after 8 days
# Type: functional, cell-based
# Settings: HCC1419, 192 h
row,SMILES,IC50 [µM]
1,C/C=C/Cn1cc(-c2cc(OC)c(C(=O)N3CCOCC3)cc2OC)c2cc(C)[nH]c2c1=O,2
2,C/C=C/Cn1cc(-c2ccc(C(C)(C)O)cc2OC)c2cc[nH]c2c1=O,20
3,C/C=C/Cn1cc(-c2ccc(C(=O)N3CCOCC3)cc2)c2cc[nH]c2c1=O,20

# Tested on: NCI-H1437
# Experiment: Cytotoxicity against human NCI-H1437 cells measured after 8 days
# Type: functional, cell-based
# Settings: NCI-H1437, 192 h
row,SMILES,IC50 [µM]
1,C/C=C/Cn1cc(-c2cc(OC)c(C(=O)N3CCOCC3)cc2OC)c2cc(C)[nH]c2c1=O,2
2,C/C=C/Cn1cc(-c2ccc(C(C)(C)O)cc2OC)c2cc[nH]c2c1=O,20
3,C/C=C/Cn1cc(-c2ccc(C(=O)N3CCOCC3)cc2)c2cc[nH]c2c1=O,20

# Tested on: NCI-H146
# Experiment: Cytotoxicity against human NCI-H146 cells measured after 8 days
# Type: functional, cell-based
# Settings: NCI-H146, 192 h
row,SMILES,IC50 [µM]
1,C/C=C/Cn1cc(-c2cc(OC)c(C(=O)N3CCOCC3)cc2OC)c2cc(C)[nH]c2c1=O,2
2,C/C=C/Cn1cc(-c2ccc(C(C)(C)O)cc2OC)c2cc[nH]c2c1=O,20
3,C/C=C/Cn1cc(-c2ccc(C(=O)N3CCOCC3)cc2)c2cc[nH]c2c1=O,20

# Tested on: not listed separately
# Experiment: Cytotoxicity against human GP2d cells measured after 8 days
# Type: functional, cell-based
# Settings: 192 h
row,SMILES,IC50 [µM]
1,C/C=C/Cn1cc(-c2cc(OC)c(C(=O)N3CCOCC3)cc2OC)c2cc(C)[nH]c2c1=O,2
2,C/C=C/Cn1cc(-c2ccc(C(C)(C)O)cc2OC)c2cc[nH]c2c1=O,20
3,C/C=C/Cn1cc(-c2ccc(C(=O)N3CCOCC3)cc2)c2cc[nH]c2c1=O,20

# Tested on: NCI-H1651
# Experiment: Cytotoxicity against human NCI-H1651 cells measured after 8 days
# Type: functional, cell-based
# Settings: NCI-H1651, 192 h
row,SMILES,IC50 [µM]
1,C/C=C/Cn1cc(-c2cc(OC)c(C(=O)N3CCOCC3)cc2OC)c2cc(C)[nH]c2c1=O,2
2,C/C=C/Cn1cc(-c2ccc(C(C)(C)O)cc2OC)c2cc[nH]c2c1=O,20
3,C/C=C/Cn1cc(-c2ccc(C(=O)N3CCOCC3)cc2)c2cc[nH]c2c1=O,20

# Tested on: not listed separately
# Experiment: Cytotoxicity against human HCC2302 cells measured after 8 days
# Type: functional, cell-based
# Settings: HCC2302, 192 h
row,SMILES,IC50 [µM]
1,C/C=C/Cn1cc(-c2cc(OC)c(C(=O)N3CCOCC3)cc2OC)c2cc(C)[nH]c2c1=O,2
2,C/C=C/Cn1cc(-c2ccc(C(C)(C)O)cc2OC)c2cc[nH]c2c1=O,20
3,C/C=C/Cn1cc(-c2ccc(C(=O)N3CCOCC3)cc2)c2cc[nH]c2c1=O,20

# Tested on: T47D
# Experiment: Cytotoxicity against human T47D cells measured after 8 days
# Type: functional, cell-based
# Settings: 192 h
row,SMILES,IC50 [µM]
1,C/C=C/Cn1cc(-c2cc(OC)c(C(=O)N3CCOCC3)cc2OC)c2cc(C)[nH]c2c1=O,2
2,C/C=C/Cn1cc(-c2ccc(C(C)(C)O)cc2OC)c2cc[nH]c2c1=O,20
3,C/C=C/Cn1cc(-c2ccc(C(=O)N3CCOCC3)cc2)c2cc[nH]c2c1=O,20

# Target: Beta-1 adrenergic receptor (Homo sapiens) (UniProt P08588)
# Experiment: Displacement of [3H](-)CGP 12177 from human beta1 adrenoceptor at 10 uM after 60 mins by scintillation counting analysis relative to control
# Settings: not given
# Sequence of Beta-1 adrenergic receptor (Homo sapiens) (P08588 whole entry, looked up): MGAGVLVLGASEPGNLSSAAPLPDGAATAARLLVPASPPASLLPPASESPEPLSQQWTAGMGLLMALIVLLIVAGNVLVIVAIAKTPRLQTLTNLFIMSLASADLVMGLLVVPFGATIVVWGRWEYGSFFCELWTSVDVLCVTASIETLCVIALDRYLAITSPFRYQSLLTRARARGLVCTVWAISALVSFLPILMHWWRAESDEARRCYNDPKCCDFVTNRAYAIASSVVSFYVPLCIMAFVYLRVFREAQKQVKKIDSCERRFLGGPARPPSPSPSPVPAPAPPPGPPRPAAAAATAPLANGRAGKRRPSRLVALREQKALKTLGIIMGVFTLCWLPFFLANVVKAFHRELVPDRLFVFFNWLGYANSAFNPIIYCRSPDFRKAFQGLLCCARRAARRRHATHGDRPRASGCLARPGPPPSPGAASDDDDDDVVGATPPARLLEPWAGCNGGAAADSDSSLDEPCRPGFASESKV
row,SMILES,Activity [%]
1,C/C=C/Cn1cc(-c2cc(OC)c(C(=O)N3CCOCC3)cc2OC)c2cc(C)[nH]c2c1=O,12
2,C/C=C/Cn1cc(-c2ccc(C(C)(C)O)cc2OC)c2cc[nH]c2c1=O,11
3,C/C=C/Cn1cc(-c2ccc(C(=O)N3CCOCC3)cc2)c2cc[nH]c2c1=O,4
